Assay results as given in patent publication US20120172384A1, “HETEROCYCLYLAMINOPYRIMIDINES AS KINASE INHIBITORS” (priority 2009, published 2012).

Tests used:
ZAP-70 = target: T1, ZAP-70 (Homo sapiens, UniProt P43403); assay: ZAP-70 kinobeads assay; type: binding; conditions: cell lysate, dot blot with ZAP-70 antibody
T1 construct: endogenous in cells
T1 sequence (P43403 1-619): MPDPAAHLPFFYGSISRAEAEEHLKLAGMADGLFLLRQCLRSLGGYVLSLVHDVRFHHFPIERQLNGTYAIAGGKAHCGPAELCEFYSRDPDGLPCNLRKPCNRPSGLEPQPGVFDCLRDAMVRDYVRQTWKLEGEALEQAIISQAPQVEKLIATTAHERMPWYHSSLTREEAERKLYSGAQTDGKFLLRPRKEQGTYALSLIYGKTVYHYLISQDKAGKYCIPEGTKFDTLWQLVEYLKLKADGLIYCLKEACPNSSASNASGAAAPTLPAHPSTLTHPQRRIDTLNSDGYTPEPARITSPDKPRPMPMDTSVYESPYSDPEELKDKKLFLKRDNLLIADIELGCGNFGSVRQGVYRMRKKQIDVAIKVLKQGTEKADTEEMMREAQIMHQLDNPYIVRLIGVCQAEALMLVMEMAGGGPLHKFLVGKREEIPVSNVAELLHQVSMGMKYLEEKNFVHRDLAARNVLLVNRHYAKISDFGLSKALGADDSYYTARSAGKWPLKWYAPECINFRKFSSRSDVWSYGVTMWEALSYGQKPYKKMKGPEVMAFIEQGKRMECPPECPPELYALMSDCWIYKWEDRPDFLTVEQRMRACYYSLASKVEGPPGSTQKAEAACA
Method: (§1) The compounds of the present invention as described in the previous examples were tested in the ZAP-70 kinobeads assay as described (EP-A 1862802 and WO-A 2007/137867). Briefly, test compounds (at various concentrations) and the affinity matrix with the immobilized aminopyrido-pyrimidine ligand 24 are added to cell lysate aliquots and allowed to bind to the proteins in the lysate sample. After the incubation time the beads with captured proteins are separated from the lysate. Bound proteins are then eluted and the presence ZAP-70 is detected and quantified using a specific antibody in a dot blot procedure and the Odyssey infrared detection system.

JAK3 = target: T2, JAK3 (Homo sapiens, UniProt P52333); assay: JAK3 kinobeads assay; type: binding; conditions: cell lysate, dot blot with JAK3 specific antibody
T2 construct: endogenous in cells
T2 sequence (P52333 1-1124): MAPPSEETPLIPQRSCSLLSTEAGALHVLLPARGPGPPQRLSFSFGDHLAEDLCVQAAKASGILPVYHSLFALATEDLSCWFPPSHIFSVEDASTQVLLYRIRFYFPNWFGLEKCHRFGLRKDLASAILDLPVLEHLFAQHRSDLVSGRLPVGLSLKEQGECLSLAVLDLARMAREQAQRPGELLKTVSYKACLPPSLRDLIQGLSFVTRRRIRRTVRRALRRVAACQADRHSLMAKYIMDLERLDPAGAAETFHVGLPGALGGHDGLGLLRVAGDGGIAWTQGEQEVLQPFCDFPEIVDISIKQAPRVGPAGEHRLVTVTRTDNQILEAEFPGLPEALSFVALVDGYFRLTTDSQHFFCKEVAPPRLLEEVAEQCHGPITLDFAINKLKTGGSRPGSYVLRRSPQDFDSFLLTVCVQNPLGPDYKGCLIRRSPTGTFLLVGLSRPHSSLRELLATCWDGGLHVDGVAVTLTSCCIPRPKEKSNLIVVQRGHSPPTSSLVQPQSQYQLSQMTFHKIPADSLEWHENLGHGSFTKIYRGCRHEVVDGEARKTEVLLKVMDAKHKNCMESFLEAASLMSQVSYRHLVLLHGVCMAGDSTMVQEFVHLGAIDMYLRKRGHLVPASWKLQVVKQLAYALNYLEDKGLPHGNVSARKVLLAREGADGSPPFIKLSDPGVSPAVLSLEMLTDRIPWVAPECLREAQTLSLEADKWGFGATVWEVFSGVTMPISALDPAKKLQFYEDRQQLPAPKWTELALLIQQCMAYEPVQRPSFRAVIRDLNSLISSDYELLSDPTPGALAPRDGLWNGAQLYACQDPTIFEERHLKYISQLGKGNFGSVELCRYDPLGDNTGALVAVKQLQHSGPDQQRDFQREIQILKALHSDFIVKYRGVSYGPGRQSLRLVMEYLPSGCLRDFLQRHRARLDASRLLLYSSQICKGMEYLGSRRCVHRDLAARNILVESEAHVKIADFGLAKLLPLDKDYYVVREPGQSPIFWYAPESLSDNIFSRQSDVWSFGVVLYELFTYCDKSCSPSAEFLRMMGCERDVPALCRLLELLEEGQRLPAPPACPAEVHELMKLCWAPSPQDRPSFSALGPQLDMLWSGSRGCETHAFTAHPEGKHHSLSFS
Method: as §1
Compounds were tested by the procedure described in Example 102 but using a JAK3 specific antibody (Cell Signaling Technology, Inc., Danvers, US, catalogue number 3775) instead of a ZAP70 antibody.

Structure (SMILES)	IC50 (ZAP-70) [nM]	IC50 (JAK3) [nM]
Cn1ccc(Nc2ncc(F)c(Nc3ccccc3NS(C)(=O)=O)n2)n1 [Example 1, N-(2-(5-fluoro-2-(1-methyl-1H-pyrazol-3-ylamino)pyrimidin-4-ylamino)phenyl)methanesulfonamide]	1000 to 10000	100 to 1000
Cc1nn(C)cc1Nc1ncc(F)c(Nc2ccccc2NS(C)(=O)=O)n1 [Example 30, N-(2-(2-(1,3-dimethyl-1H-pyrazol-4-ylamino)-5-fluoropyrimidin-4-ylamino)phenyl)methanesulfonamide]	100 to 1000	100 to 1000
CCn1cc(Nc2ncc(Cl)c(Nc3ccc(OC)cc3NS(C)(=O)=O)n2)c(C)n1 [Example 28, N-(2-(5-chloro-2-(1-ethyl-3-methyl-1H-pyrazol-4-ylamino)pyrimidin-4-ylamino)-5-methoxyphenyl)methanesulfonamide]	100 to 1000	≤ 100
COc1ccc(Nc2nc(Nc3cnn(C)c3)ncc2Cl)c(NS(C)(=O)=O)c1 [Example 6, N-(2-(5-chloro-2-(1-methyl-1H-pyrazol-4-ylamino)pyrimidin-4-ylamino)-5-methoxyphenyl)methanesulfonamide]	≤ 100	≤ 100
CCn1cc(Nc2ncc(F)c(Nc3ccc(OC)cc3NS(C)(=O)=O)n2)c(C)n1 [Example 34, N-(2-(2-(1-ethyl-3-methyl-1H-pyrazol-4-ylamino)-5-fluoropyrimidin-4-ylamino)-5-methoxyphenyl)methanesulfonamide]	100 to 1000	100 to 1000
Cn1cc(Nc2ncc(Br)c(Nc3ccccc3NS(C)(=O)=O)n2)cn1 [Example 41, N-(2-(5-bromo-2-(1-methyl-1H-pyrazol-4-ylamino)pyrimidin-4-ylamino)phenyl)methanesulfonamide]	100 to 1000	≤ 100
COc1ccc(Nc2nc(Nc3c(C)cnn3C)ncc2Cl)c(NS(C)(=O)=O)c1 [Example 14, N-(2-(5-chloro-2-(1,4-dimethyl-1H-pyrazol-5-ylamino)pyrimidin-4-ylamino)-5-methoxyphenyl)methanesulfonamide]	1000 to 10000	–
CCC(C)n1nc(C)cc1Nc1ncc(Cl)c(Nc2ccc(OC)cc2NS(C)(=O)=O)n1 (stereo not shown) [Example 27, N-(2-(2-(1-sec-butyl-3-methyl-1H-pyrazol-5-ylamino)-5-chloropyrimidin-4-ylamino)-5-methoxyphenyl)methanesulfonamide]	100 to 1000	–
COc1ccc(Nc2nc(Nc3ccnn3CC3CC3)ncc2Cl)c(NS(C)(=O)=O)c1 [Example 60, N-(2-((5-chloro-2-((1-(cyclopropylmethyl)-1H-pyrazol-5-yl)amino)pyrimidin-4-yl)amino)-5-methoxyphenyl)methanesulfonamide]	100 to 1000	–
CCc1nn(C)c(Nc2ncc(Cl)c(Nc3ccc(OC)cc3NS(C)(=O)=O)n2)c1C [Example 15, N-(2-(5-chloro-2-(3-ethyl-1,4-dimethyl-1H-pyrazol-5-ylamino)pyrimidin-4-ylamino)-5-methoxyphenyl)methanesulfonamide]	1000 to 10000	–
COc1ccc(Nc2nc(Nc3ccnn3C(C)C)ncc2Cl)c(NS(C)(=O)=O)c1 [Example 68, N-(2-((5-chloro-2-((1-isopropyl-1H-pyrazol-5-yl)amino)pyrimidin-4-yl)amino)-5-methoxyphenyl)methanesulfonamide]	100 to 1000	–
COc1ccc(Nc2nc(Nc3c(C)noc3C)ncc2Cl)c(NS(C)(=O)=O)c1 [Example 19, N-(2-(5-chloro-2-(3,5-dimethylisoxazol-4-ylamino)pyrimidin-4-ylamino)-5-methoxyphenyl)methanesulfonamide]	1000 to 10000	–
CCn1ncc(C)c1Nc1ncc(Cl)c(Nc2ccc(OC)cc2NS(C)(=O)=O)n1 [Example 26, N-(2-(5-chloro-2-(1-ethyl-4-methyl-1H-pyrazol-5-ylamino)pyrimidin-4-ylamino)-5-methoxyphenyl)methanesulfonamide]	1000 to 10000	–

The next lines start with the values.

IC50 (ZAP-70) [nM]	IC50 (JAK3) [nM]	Structure (SMILES)
100 to 1000	1000 to 10000	COc1ccc(Nc2nc(Nc3cc(C)nn3CCO)ncc2Cl)c(NS(C)(=O)=O)c1 [Example 94, N-(2-((5-chloro-2-((1-(2-hydroxyethyl)-3-methyl-1H-pyrazol-5-yl)amino)pyrimidin-4-yl)amino)-5-methoxyphenyl)methanesulfonamide]
100 to 1000	1000 to 10000	COCCn1nc(C)cc1Nc1ncc(Cl)c(Nc2ccc(OC)cc2NS(C)(=O)=O)n1 [Example 96, N-(2-((5-chloro-2-((1-(2-methoxyethyl)-3-methyl-1H-pyrazol-5-yl)amino)pyrimidin-4-yl)amino)-5-methoxyphenyl)methanesulfonamide]
100 to 1000	–	CCCCn1nccc1Nc1ncc(Cl)c(Nc2ccc(OC)cc2NS(C)(=O)=O)n1 [Example 87, N-(2-((2-((1-butyl-1H-pyrazol-5-yl)amino)-5-chloropyrimidin-4-yl)amino)-5-methoxyphenyl)methanesulfonamide]
100 to 1000	–	COc1ccc(Nc2nc(Nc3cc(C)nn3CC(C)C)ncc2Cl)c(NS(C)(=O)=O)c1 [Example 95, N-(2-((5-chloro-2-((1-isobutyl-3-methyl-1H-pyrazol-5-yl)amino)pyrimidin-4-yl)amino)-5-methoxyphenyl)methanesulfonamide]
100 to 1000	–	COc1ccc(Nc2nc(Nc3cc(C)nn3C(C)C)ncc2Cl)c(NS(C)(=O)=O)c1 [Example 71, N-(2-((5-chloro-2-((1-isopropyl-3-methyl-1H-pyrazol-5-yl)amino)pyrimidin-4-yl)amino)-5-methoxyphenyl)methanesulfonamide]
100 to 1000	–	CCCn1nccc1Nc1ncc(Cl)c(Nc2ccc(OC)cc2NS(C)(=O)=O)n1 [Example 76, N-(2-((5-chloro-2-((1-propyl-1H-pyrazol-5-yl)amino)pyrimidin-4-yl)amino)-5-methoxyphenyl)methanesulfonamide]
≤ 100	–	CCCn1nc(C)cc1Nc1ncc(Cl)c(Nc2ccc(OC)cc2NS(C)(=O)=O)n1 [Example 69, N-(2-((5-chloro-2-((3-methyl-1-propyl-1H-pyrazol-5-yl)amino)pyrimidin-4-yl)amino)-5-methoxyphenyl)methanesulfonamide]
1000 to 10000	–	COc1ccc(Nc2nc(Nc3ccnn3CC(C)C)ncc2Cl)c(NS(C)(=O)=O)c1 [Example 98, N-(2-((5-chloro-2-((1-isobutyl-1H-pyrazol-5-yl)amino)pyrimidin-4-yl)amino)-5-methoxyphenyl)methanesulfonamide]
1000 to 10000	–	COc1ccc(Nc2nc(Nc3cc(C)nn3C(C)C3CC3)ncc2Cl)c(NS(C)(=O)=O)c1 (stereo not shown) [Example 88, N-(2-((5-chloro-2-((1-(1-cyclopropylethyl)-3-methyl-1H-pyrazol-5-yl)amino)pyrimidin-4-yl)amino)-5-methoxyphenyl)methanesulfonamide]
≤ 100	–	CCCCn1nc(C)cc1Nc1ncc(Cl)c(Nc2ccc(OC)cc2NS(C)(=O)=O)n1 [Example 86, N-(2-((2-((1-butyl-3-methyl-1H-pyrazol-5-yl)amino)-5-chloropyrimidin-4-yl)amino)-5-methoxyphenyl)methanesulfonamide]
